Data from patent publication US6649654B1, “Methods for identifying and using IKK inhibitors” (The Regents of the University of California, priority 1999, dated 2003).
“Also recorded” adds a separate entry of the source.

Columns and labels:
JNK1 = molecular target: T1, JNK1 (Homo sapiens, UniProt P45983); assay: In vitro JNK1 kinase activity; type: biochemical; conditions: in vitro incubation with up to 60 μM
T1 construct: Endogenous IKK, HA-tagged IKKα, endogenous JNK1, and p38 activities were determined; endogenous in cells
T1 sequence (P45983 whole entry): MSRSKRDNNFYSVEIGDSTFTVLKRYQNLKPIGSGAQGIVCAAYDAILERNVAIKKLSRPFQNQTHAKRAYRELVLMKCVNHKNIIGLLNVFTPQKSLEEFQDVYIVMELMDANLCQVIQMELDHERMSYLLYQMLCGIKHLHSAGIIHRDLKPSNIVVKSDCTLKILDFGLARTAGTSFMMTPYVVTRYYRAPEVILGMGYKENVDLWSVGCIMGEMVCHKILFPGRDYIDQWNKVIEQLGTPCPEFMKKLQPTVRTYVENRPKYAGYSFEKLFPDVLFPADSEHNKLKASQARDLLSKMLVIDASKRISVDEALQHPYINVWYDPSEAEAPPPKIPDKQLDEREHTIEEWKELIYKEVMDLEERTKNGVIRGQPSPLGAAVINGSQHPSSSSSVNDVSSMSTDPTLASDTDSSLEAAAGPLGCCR
Protocol: (§1) Cell lysates were incubated with anti-IKKα (Pharmingen), anti-HA (12CA5; Pharmingen), anti-JNK1 (333.8; Pharmingen), or anti-p38 (New England Biolabs) for 2 hours. Then, 15 μl protein A-Sepharose (Sigma) were added and the mixture was allowed to incubate for 1 hour. After extensive washing, kinase assays were performed as known in the art (See e.g., DiDonato et al., Nature 388:548-554 [1997]). Endogenous IKK, HA-tagged IKKα, endogenous JNK1, and p38 activities were determined with GST-1κBα(1-54), GST-c-Jun(1-79), and GST-ATF2 as substrates.
(§2) Endogenous IKK was immunoprecipitated from TNFα-stimulated HeLa cells and the kinase activity determined in the presence of different concentrations of PGA1 (the results of which are shown in FIG. 2B) or 15dPGJ2 (the results of which are shown in FIG. 2C).

[1] = system: inducible nitric oxide synthase (iNOS); conditions: activated monocytes; cited from earlier work
IKKβ = molecular target: T2, IKKβ (Homo sapiens, UniProt O14920); assay: Recombinant wild-type IKKβ (Sf9) kinase activity; type: biochemical; design: FLAG; made in house; host or cells: Sf9 (baculovirus)
T2 sequence (O14920 1-756): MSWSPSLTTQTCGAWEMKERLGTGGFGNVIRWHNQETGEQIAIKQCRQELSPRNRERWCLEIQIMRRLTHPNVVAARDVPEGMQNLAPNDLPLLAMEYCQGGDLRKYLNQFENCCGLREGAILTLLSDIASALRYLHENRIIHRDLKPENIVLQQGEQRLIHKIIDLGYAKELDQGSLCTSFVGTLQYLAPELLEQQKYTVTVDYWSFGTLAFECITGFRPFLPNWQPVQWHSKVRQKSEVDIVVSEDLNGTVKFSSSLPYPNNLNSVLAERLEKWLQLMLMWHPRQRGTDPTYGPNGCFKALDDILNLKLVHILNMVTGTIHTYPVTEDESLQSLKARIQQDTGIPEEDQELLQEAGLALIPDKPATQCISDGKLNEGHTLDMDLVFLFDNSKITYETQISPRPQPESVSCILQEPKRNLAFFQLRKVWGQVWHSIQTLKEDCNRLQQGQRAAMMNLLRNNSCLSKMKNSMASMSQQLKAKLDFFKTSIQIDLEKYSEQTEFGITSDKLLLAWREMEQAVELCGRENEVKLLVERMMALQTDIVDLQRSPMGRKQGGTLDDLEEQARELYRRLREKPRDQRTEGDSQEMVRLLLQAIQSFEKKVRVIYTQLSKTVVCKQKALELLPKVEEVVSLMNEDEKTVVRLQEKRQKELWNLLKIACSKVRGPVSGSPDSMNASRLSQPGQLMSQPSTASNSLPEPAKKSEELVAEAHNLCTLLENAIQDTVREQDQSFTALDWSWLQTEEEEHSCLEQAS
Protocol: In addition, recombinant IKKβ was expressed in Sf9 cells and purified as described (Zandi et al., supra). AA, PGs, LTB4, and T×B2 were added to washed imnmunoprecipitates of recombinant IKKβ in kinase buffer to a final volume of 500 μl. After 1.5 hours at 4° C., the immunoprecipitates were washed and the kinase activity determined. Western blot analysis was also performed as known in the art (See e.g., Rossi et al., supra).
In other experiments, purified recombinant IKKβ immobilized on beads with 15dPGJ2 or diluent were preincubated and extensively rinsed with kinase buffer lacking the inhibitor.

p38 = p38 (Homo sapiens, UniProt Q16539); assay: In vitro p38 kinase activity; type: biochemical; design: Endogenous IKK, HA-tagged IKKα, endogenous JNK1, and p38 activities were determined; endogenous in cells; conditions: in vitro incubation with up to 60 μM
Chain of p38 (Q16539 whole entry): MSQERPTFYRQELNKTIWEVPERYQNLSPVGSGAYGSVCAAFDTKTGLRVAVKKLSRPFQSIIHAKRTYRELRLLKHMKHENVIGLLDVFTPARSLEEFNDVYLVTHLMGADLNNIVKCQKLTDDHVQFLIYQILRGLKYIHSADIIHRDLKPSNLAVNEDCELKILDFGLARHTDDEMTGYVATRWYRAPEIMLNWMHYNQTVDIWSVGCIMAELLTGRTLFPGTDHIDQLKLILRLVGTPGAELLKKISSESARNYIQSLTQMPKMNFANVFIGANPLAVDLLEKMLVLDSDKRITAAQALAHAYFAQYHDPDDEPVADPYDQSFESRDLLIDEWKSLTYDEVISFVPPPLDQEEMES
Protocol: as §1, §2

IKK = assay: NIK-induced endogenous IKK activity in transfected COS cells; type: cell-based; conditions: PGA1 added 10 min or 18 h after transfection
Protocol: (§3) Cells used in the experiments described herein were cultured in either RPMI 1640 (Jurkat cells) or DMEM (HeLa and COS cells), supplemented with 10% FBS and antibiotics. Cells were stimulated with either 25 ng/ml TPA, 20 ng/ml recombinant TNFα, or 10 ng/ml interleukin 1β (Sigma). PGA1, 15dPGJ2, T×B2, LTB4, AA and other PGs (Cayman) dissolved in ethanol were used as well, as known in the art (See e.g., Rossi et al., 94:746-750 [1997]). Controls received equal amounts of ethanol. Transfections were performed using Lipofectamine Plus (GIBCO) for HeLa and COS cells and DEAE-dextran (Sigma) for Jurkat cells. Xpress-tagged NIK, Xpress-tagged MEKK1, HA-tagged IKKα, and HA-tagged IKKβ were also used (See e.g., Zandi et al., Science 281:1360-1363 [1998]; and Delhase et al., Science 284:309-313 [1999]). COX2 and cPLA2 expression vectors were obtained from Dr. L. Feng (See also, Hirose et al., J. Am. Soc. Nephrol., 9:408-416 [1998]). PGD synthase was cloned from HT29 colon carcinoma cell line cDNA by PCR and subcloned into a pCDNA3 vector. […]
Cell lysates were incubated with anti-IKKα (Pharmingen), anti-HA (12CA5; Pharmingen), anti-JNK1 (333.8; Pharmingen), or anti-p38 (New England Biolabs) for 2 hours. […] Endogenous IKK, HA-tagged IKKα, endogenous JNK1, and p38 activities were determined with GST-1κBα(1-54), GST-c-Jun(1-79), and GST-ATF2 as substrates.

JNK = JNK (Homo sapiens, UniProt P45983); assay: JNK activation in TPA-stimulated Jurkat cells; type: cell-based; design: endogenous in cells; host or cells: Jurkat; conditions: 24 μM PGA1, TPA
Chain of JNK (P45983 whole entry): as the sequence (P45983 whole entry) above
Protocol: as §3
Cell lysates were incubated with anti-IKKα (Pharmingen), anti-HA (12CA5; Pharmingen), anti-JNK1 (333.8; Pharmingen), or anti-p38 (New England Biolabs) for 2 hours. […] Endogenous IKK, HA-tagged IKKα, endogenous JNK1, and p38 activities were determined with GST-1κBα(1-54), GST-c-Jun(1-79), and GST-ATF2 as substrates. […]

CCCCC/C=C/C=C1/C(=O)C=C[C@@H]1C/C=C\CCCC(=O)O [15dPGJ2, 15-deoxy-Δ^12-14-PGJ2]
inhibition of JNK1 activity in vitro (JNK1): No significant inhibition | production of inducible nitric oxide synthase (iNOS) [1]: inhibits | effect on recombinant wild-type IKKβ (IKKβ; FIG. 6D): inhibitory | inhibition after extensive washing (reversibility) (IKKβ; recombinant IKKβ on beads pre-incubated with inhibitor, rinsed with kinase buffer): remained inhibited | inhibition of p38 activity in vitro (p38): No significant inhibition

CCCCC[C@H](O)/C=C/[C@H]1C=CC(=O)C1CCCCCCC(=O)O (stereo partly shown) [PGA1, prostaglandin A1]
effect on NIK-induced activation of endogenous IKK activity (IKK): inhibited; also recorded: prevents | effect on activation of JNK (JNK): did not inhibit
